Biological target: T1, Bcl-2 protein (Recombinant Human Bcl-2 Protein) (Homo sapiens, UniProt P10415)
T1 construct: purchased Novus NBP2-34889
Test: Binding evaluation of mixture library compounds to Bcl-2 using AS-MS (affinity selection mass spectrometry)
Conditions: for ASMS ratio (%) n = 1 / ASMS ratio (%) n = 2: ASMS Ratio(%)=(A−C)/B×100; for ASMS ratio (%) n = 1: replicate n = 1; for ASMS ratio (%) n = 2: replicate n = 2
Procedure, shortened: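 Affinity selection MS: Bcl-2 20 μM + 1200-cpd mixture, […]/cpd, Tris pH 7.4 buffer w/ Tween-20, DTT; 1 h 23° C dark; P-2 spin SEC; MeCN/MeOH extraction; RP LC/MS. ASMS Ratio(%) = (A−C)/B×100.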

[1] = AS-MS on the mixture of 1200 library compounds
[2] = AS-MS, mixture of 1200 compounds, Bcl-2

T1 sequence (P10415 whole entry): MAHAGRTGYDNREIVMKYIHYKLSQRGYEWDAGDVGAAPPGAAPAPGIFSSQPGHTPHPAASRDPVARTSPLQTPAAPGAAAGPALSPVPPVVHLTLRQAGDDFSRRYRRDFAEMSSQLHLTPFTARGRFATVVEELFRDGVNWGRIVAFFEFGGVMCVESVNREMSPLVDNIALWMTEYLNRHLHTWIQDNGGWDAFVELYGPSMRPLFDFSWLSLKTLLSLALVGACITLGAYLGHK

Compound | ASMS ratio (%) n = 1 [1] [%] | ASMS ratio (%) n = 2 [1] [%] | ASMS ratio (%) n = 1 (AS-MS, mixture library, Bcl-2) [%] | ASMS ratio (%) n = 2 (AS-MS, mixture library, Bcl-2) [%] | further results
CCOc1cncc(-c2ccc(C(=O)N3CCN(c4ccc(C(=O)N(C)CC56CC7CC(CC(C7)C5)C6)nn4)CC3)c3ccccc23)c1 [B3A014-01, N-(1-Adamantylmethyl)-6-[4-[4-(5-ethoxypyridin-3-yl)naphthalene-1-carbonyl]piperazin-1-yl]-N-methylpyridazine-3-carboxamide] | 0.6 | 0.8 |  |  | 
CCOc1cncc(-c2ccc(CN3CCN(c4ccc(C(=O)N(CC)CC)cc4)CC3)c3ccccc23)c1 [B4J066-01, 4-[4-[[4-(5-Ethoxypyridin-3-yl)naphthalen-1-yl]methyl]piperazin-1-yl]-N,N-diethylbenzamide] |  |  | 0.0 | −1.5 | 
CCOc1cccc(-c2csc(C(=O)N3CCN(c4ccc(C(=O)NS(=O)(=O)CCC(F)(F)F)nn4)CC3)c2)c1 [B2N001-01, 6-[4-[4-(3-Ethoxyphenyl)thiophene-2-carbonyl]piperazin-1-yl]-N-(3,3,3-trifluoropropylsulfonyl)pyridazine-3-carboxamide] |  |  |  |  | ASMS ratio (%) (n = 2): 0.0%
CCOc1cccc(-c2ccc(CN3CCN(c4ccc(C(=O)NCC(F)(F)F)nn4)CC3)c(CC)c2)c1 [B1K075-01, 6-[4-[[4-(3-Ethoxyphenyl)-2-ethylphenyl]methyl]piperazin-1-yl]-N-(2,2,2-trifluoroethyl)pyridazine-3-carboxamide] |  |  |  |  | ASMS ratio (%) n = 1 [2]: 1.4%; ASMS ratio (%) n = 2 [2]: −3.8%
CCOc1cccc(-c2cc(C(=O)N3CCN(c4ccc(C(=O)NCC56CC7CC(CC(C7)C5)C6)cc4)CC3)cc(C(F)(F)F)c2)c1 [B1A039-01, N-(1-Adamantylmethyl)-4-[4-[3-(3-ethoxyphenyl)-5-(trifluoromethyl)benzoyl]piperazin-1-yl]benzamide] |  |  |  |  | ASMS ratio (%) n = 1 [2]: 6.3%; ASMS ratio (%) n = 2 [2]: −8.4%
CCOc1cccc(-c2ccc(CN3CCN(c4ccc(C(=O)Nc5ccc(OC)cc5)cc4)CC3)c3ccccc23)c1 [B1O065-01, 4-[4-[[4-(3-Ethoxyphenyl)naphthalen-1-yl]methyl]piperazin-1-yl]-N-(4-methoxyphenyl)benzamide] | 7.5 | 0.8 |  |  | 
4-[4-[5-[2-(5-Ethoxypyridin-3-yl)ethynyl]pyridine-3-carbonyl]piperazin-1-yl]-N-propylbenzamide [B1M057-01] |  |  |  |  | ASMS ratio (%) n = 1 [2]: −0.7%; ASMS ratio (%) n = 2 [2]: 1.4%
CCOc1cncc(-c2ccc(C(=O)N3CCN(c4ccc(C(=O)N(C)CC56CC7CC(CC(C7)C5)C6)nn4)CC3)cc2C)c1 [B3A004-01, N-(1-Adamantylmethyl)-6-[4-[4-(5-ethoxypyridin-3-yl)-3-methylbenzoyl]piperazin-1-yl]-N-methylpyridazine-3-carboxamide] | 3.5 | −0.5 |  |  | 
CCOc1cncc(-c2ccc(C(=O)N3CCN(c4ccc(C(=O)NS(=O)(=O)CC56CC7CC(CC(C7)C5)C6)cc4)CC3)c3ccccc23)c1 [B2A036-01, N-(1-Adamantylmethylsulfonyl)-4-[4-[4-(5-ethoxypyridin-3-yl)naphthalene-1-carbonyl]piperazin-1-yl]benzamide] |  |  | 2.0 | −0.4 | 
CCOc1cncc(-c2cc(C(=O)N3CCN(c4ccc(C(=O)NCC56CC7CC(CC(C7)C5)C6)nn4)CC3)cc(C(F)(F)F)c2)c1 [B1A018-01, N-(1-Adamantylmethyl)-6-[4-[3-(5-ethoxypyridin-3-yl)-5-(trifluoromethyl)benzoyl]piperazin-1-yl]pyridazine-3-carboxamide] |  |  |  |  | ASMS ratio (%) n = 1 [2]: −6.5%; ASMS ratio (%) n = 2 [2]: 9.9%
CCOc1cncc(-c2csc(CN3CCN(c4ccc(C(=O)N(C)CC56CC7CC(CC(C7)C5)C6)nn4)CC3)c2)c1 [B3A094-01, N-(1-Adamantylmethyl)-6-[4-[[4-(5-ethoxypyridin-3-yl)thiophen-2-yl]methyl]piperazin-1-yl]-N-methylpyridazine-3-carboxamide] | 3.7 | 0.5 |  |  | 
4-[4-[1-[4-(3-Ethoxyphenyl)phenyl]ethyl]piperazin-1-yl]-N-propylbenzamide [B1M003-01] |  |  |  |  | ASMS ratio (%) n = 1 [2]: −1.9%; ASMS ratio (%) n = 2 [2]: 2.0%
CCOc1cccc(-c2csc(CN3CCN(c4ccc(C(=O)NS(=O)(=O)C(C)(C)C)cc4)CC3)c2)c1 [B2L067-01, N-tert-Butylsulfonyl-4-[4-[[4-(3-ethoxyphenyl)thiophen-2-yl]methyl]piperazin-1-yl]benzamide] |  |  |  |  | ASMS ratio (%) (n = 1): 0.0%; ASMS ratio (%) (n = 2): 0.0%
CCOc1cncc(-c2csc(CN3CCN(c4ccc(C(=O)NS(=O)(=O)c5ccc(NCCSc6ccccc6)c(C(F)(F)F)c5)nn4)CC3)c2)c1 [B2R094-01, 6-[4-[[4-(5-Ethoxypyridin-3-yl)thiophen-2-yl]methyl]piperazin-1-yl]-N-[4-(2-phenylsulfanylethylamino)-3-(trifluoromethyl)phenyl]sulfonylpyridazine-3-carboxamide] |  |  |  |  | ASMS ratio (%) (n = 1): 18.8%; ASMS ratio (%) (n = 2): 11.9%
CCOc1cncc(-c2ccc(CN3CCN(c4ccc(C(=O)NS(=O)(=O)CC56CC7CC(CC(C7)C5)C6)cc4)CC3)c3ccccc23)c1 [B2A066-01, N-(1-Adamantylmethylsulfonyl)-4-[4-[[4-(5-ethoxypyridin-3-yl)naphthalen-1-yl]methyl]piperazin-1-yl]benzamide] |  |  | 3.2 | 0.0 | 
CCOc1cccc(-c2ccc(C(=O)N3CCN(c4ccc(C(=O)NS(=O)(=O)CC56CC7CC(CC(C7)C5)C6)cc4)CC3)cc2F)c1 [B2A027-01, N-(1-Adamantylmethylsulfonyl)-4-[4-[4-(3-ethoxyphenyl)-3-fluorobenzoyl]piperazin-1-yl]benzamide] |  |  | 5.5 | −3.9 | 

Second part, led by results:

ASMS ratio (%) n = 1 [1] [%] | ASMS ratio (%) n = 2 [1] [%] | ASMS ratio (%) n = 1 (AS-MS, mixture library, Bcl-2) [%] | ASMS ratio (%) n = 2 (AS-MS, mixture library, Bcl-2) [%] | Compound | further results
−0.1 | −3.1 |  |  | CCOc1cccc(-c2csc(C(=O)N3CCN(c4ccc(C(=O)Nc5ccc(OC)cc5)nn4)CC3)c2)c1 [B1O001-01, 6-[4-[4-(3-Ethoxyphenyl)thiophene-2-carbonyl]piperazin-1-yl]-N-(4-methoxyphenyl)pyridazine-3-carboxamide] | 
3.9 | −0.9 |  |  | CCOc1cncc(-c2ccc(CN3CCN(c4ccc(C(=O)Nc5ccc(OC)cc5)nn4)CC3)cc2C)c1 [B1O074-01, 6-[4-[[4-(5-Ethoxypyridin-3-yl)-3-methylphenyl]methyl]piperazin-1-yl]-N-(4-methoxyphenyl)pyridazine-3-carboxamide] | 
 |  | 3.7 | 1.5 | CCOc1cccc(-c2ccc(CN3CCN(c4ccc(C(=O)N(CC)CC)nn4)CC3)c3ccccc23)c1 [B4J091-01, 6-[4-[[4-(3-Ethoxyphenyl)naphthalen-1-yl]methyl]piperazin-1-yl]-N,N-diethylpyridazine-3-carboxamide] | 
 |  | 25.0 | 15.0 | CCOc1cccc(-c2cc(CN3CCN(c4ccc(C(=O)NS(=O)(=O)c5ccc(NCCSc6ccccc6)c([N+](=O)[O-])c5)nn4)CC3)cc(OC(F)(F)F)c2)c1 [B2Q089-01, 6-[4-[[3-(3-Ethoxyphenyl)-5-(trifluoromethoxy)phenyl]methyl]piperazin-1-yl]-N-[3-nitro-4-(2-phenylsulfanylethylamino)phenyl]sulfonylpyridazine-3-carboxamide] | 

From patent US20240132431A1, “METHOD FOR ALKYLATING ACIDIC FUNCTIONAL GROUP” (Chugai Seiyaku Kabushiki Kaisha, priority 2021, published 2024)
